# System: survivin promoter in SW480 cells
# Assay: Survivin luciferase reporter in SW480 cells
# Assay type: cell-based
# Details: Homo sapiens, SW480; Table 10; prodrug compounds, reporter gene assay Survivin; read-out: RGA, Survivin IC50
row,SMILES,IC50
1,C=CCN1CC(=O)N2[C@@H](Cc3ccc(OP(=O)(O)O)cc3)C(=O)N(Cc3cccc4cccnc34)C[C@@H]2N1C(=O)NCc1ccccc1 [Compound 6],0.1 µM
2,CN1CC(=O)N2[C@@H](Cc3ccc(OP(=O)(O)O)cc3)C(=O)N(Cc3ccc4ncsc4c3)C[C@@H]2N1C(=O)NCc1ccccc1 [Compound 11],6.7 µM
3,CCCN1CC(=O)N2[C@@H](Cc3ccc(OP(=O)(O)O)cc3)C(=O)N(Cc3cccc4cccnc34)C[C@@H]2N1C(=O)NCc1ccccc1 [Compound 10],1.7 µM
4,CN(C)c1cc(CN2C[C@H]3N(C(=O)CN(C)N3C(=O)NCc3ccccc3)[C@@H](Cc3ccc(OP(=O)(O)O)cc3)C2=O)ccc1Cl [Compound 13],0.9 µM
5,CN1CC(=O)N2[C@@H](Cc3ccc(OP(=O)(O)O)cc3)C(=O)N(Cc3ccc(F)cc3F)C[C@@H]2N1C(=O)NCc1ccccc1 [Compound 4],6.5 µM
6,C=CCN1CC(=O)N2[C@@H](Cc3ccc(OP(=O)(O)O)cc3)C(=O)N(Cc3ccc(Cl)c4cccnc34)C[C@@H]2N1C(=O)NCc1ccccc1 [Compound 7],1 µM
7,CN1CC(=O)N2[C@@H](Cc3ccc(OP(=O)(O)O)cc3)C(=O)N(Cc3cccc4ccccc34)C[C@@H]2N1C(=O)NCc1ccccc1 [Compound 2],5.7 µM
8,C=CCN1CC(=O)N2[C@@H](Cc3ccc(OP(=O)(O)O)cc3)C(=O)N(Cc3ccc(F)cc3F)C[C@@H]2N1C(=O)NCc1ccccc1 [Compound 8],0.9 µM
9,C=CCN1CC(=O)N2[C@@H](Cc3ccc(OP(=O)(O)O)cc3)C(=O)N(Cc3cccc4c3N(C)CCO4)C[C@@H]2N1C(=O)NCc1ccccc1 [Compound 12],0.7 µM

# System: TCF4/β-catenin transcription (TOPFlash) in SW480 cells
# Assay: Reporter gene assay (TOPFlash luciferase)
# Assay type: cell-based
# Details: Homo sapiens, SW480, Table 10; prodrug compounds, reporter gene assay TopF; read-out: RGA, TopF IC50
# How it was run: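 SW480 cells transiently co-transfected with TOPFlash and pRL-null (4:1 µg) using Superfect, then reseeded at 3×10^4 cells/well and incubated overnight at 37 °C. Compound treatment lasted 24 h before luciferase read-out.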
row,SMILES,IC50
1,C=CCN1CC(=O)N2[C@@H](Cc3ccc(OP(=O)(O)O)cc3)C(=O)N(Cc3cccc4cccnc34)C[C@@H]2N1C(=O)NCc1ccccc1 [Compound 6],0.8 µM
2,CN1CC(=O)N2[C@@H](Cc3ccc(OP(=O)(O)O)cc3)C(=O)N(Cc3ccc4ncsc4c3)C[C@@H]2N1C(=O)NCc1ccccc1 [Compound 11],10.3 µM
3,CCCN1CC(=O)N2[C@@H](Cc3ccc(OP(=O)(O)O)cc3)C(=O)N(Cc3cccc4cccnc34)C[C@@H]2N1C(=O)NCc1ccccc1 [Compound 10],2.8 µM
4,CN(C)c1cc(CN2C[C@H]3N(C(=O)CN(C)N3C(=O)NCc3ccccc3)[C@@H](Cc3ccc(OP(=O)(O)O)cc3)C2=O)ccc1Cl [Compound 13],1.8 µM
5,CN1CC(=O)N2[C@@H](Cc3ccc(OP(=O)(O)O)cc3)C(=O)N(Cc3cccc4cnn(C)c34)C[C@@H]2N1C(=O)NCc1ccccc1 [Compound 5],26 µM
6,CN1CC(=O)N2[C@@H](Cc3ccc(OP(=O)(O)O)cc3)C(=O)N(Cc3ccc(F)cc3F)C[C@@H]2N1C(=O)NCc1ccccc1 [Compound 4],7.3 µM
7,CN(C)c1cc(F)ccc1CN1C[C@H]2N(C(=O)CN(C)N2C(=O)NCc2ccccc2)[C@@H](Cc2ccc(OP(=O)(O)O)cc2)C1=O [Compound 3],11.5 µM
8,C=CCN1CC(=O)N2[C@@H](Cc3ccc(OP(=O)(O)O)cc3)C(=O)N(Cc3ccc(Cl)c4cccnc34)C[C@@H]2N1C(=O)NCc1ccccc1 [Compound 7],2.3 µM
9,CN1CC(=O)N2[C@@H](Cc3ccc(OP(=O)(O)O)cc3)C(=O)N(Cc3cccc4ccccc34)C[C@@H]2N1C(=O)NCc1ccccc1 [Compound 2],3.5 µM
10,C=CCN1CC(=O)N2[C@@H](Cc3ccc(OP(=O)(O)O)cc3)C(=O)N(Cc3ccc(F)cc3F)C[C@@H]2N1C(=O)NCc1ccccc1 [Compound 8],1.4 µM
11,C=CCN1CC(=O)N2[C@@H](Cc3ccc(OP(=O)(O)O)cc3)C(=O)N(Cc3cccc4c3N(C)CCO4)C[C@@H]2N1C(=O)NCc1ccccc1 [Compound 12],1 µM

# System: SW480 cells
# Assay: Growth inhibition assay (MTS)
# Assay type: cell-based
# Details: Homo sapiens; Table 10; prodrug compounds, SW480 cells, growth inhibition; read-out: MTS, SW480 (uM) GI50
# How it was run: (§1)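 Cells seeded at 10^4 per well, grown 24 h at 37° C, then exposed to compound at various concentrations for 48 hours. MTS added for 2 h; absorbance at 490 nm gave viability, with cytotoxicity calculated per concentration against pre-treatment reading.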
row,SMILES,GI50
1,C=CCN1CC(=O)N2[C@@H](Cc3ccc(OP(=O)(O)O)cc3)C(=O)N(Cc3cccc4cccnc34)C[C@@H]2N1C(=O)NCc1ccccc1 [Compound 6],0.5 µM
2,CN1CC(=O)N2[C@@H](Cc3ccc(OP(=O)(O)O)cc3)C(=O)N(Cc3ccc4ncsc4c3)C[C@@H]2N1C(=O)NCc1ccccc1 [Compound 11],6.5 µM
3,CCCN1CC(=O)N2[C@@H](Cc3ccc(OP(=O)(O)O)cc3)C(=O)N(Cc3cccc4cccnc34)C[C@@H]2N1C(=O)NCc1ccccc1 [Compound 10],0.9 µM
4,CN(C)c1cc(CN2C[C@H]3N(C(=O)CN(C)N3C(=O)NCc3ccccc3)[C@@H](Cc3ccc(OP(=O)(O)O)cc3)C2=O)ccc1Cl [Compound 13],2.3 µM
5,CN1CC(=O)N2[C@@H](Cc3ccc(OP(=O)(O)O)cc3)C(=O)N(Cc3cccc4cnn(C)c34)C[C@@H]2N1C(=O)NCc1ccccc1 [Compound 5],5.2 µM
6,CN1CC(=O)N2[C@@H](Cc3ccc(OP(=O)(O)O)cc3)C(=O)N(Cc3ccc(F)cc3F)C[C@@H]2N1C(=O)NCc1ccccc1 [Compound 4],6.9 µM
7,CN(C)c1cc(F)ccc1CN1C[C@H]2N(C(=O)CN(C)N2C(=O)NCc2ccccc2)[C@@H](Cc2ccc(OP(=O)(O)O)cc2)C1=O [Compound 3],3 µM
8,C=CCN1CC(=O)N2[C@@H](Cc3ccc(OP(=O)(O)O)cc3)C(=O)N(Cc3ccc(Cl)c4cccnc34)C[C@@H]2N1C(=O)NCc1ccccc1 [Compound 7],2.2 µM
9,CN1CC(=O)N2[C@@H](Cc3ccc(OP(=O)(O)O)cc3)C(=O)N(Cc3cccc4ccccc34)C[C@@H]2N1C(=O)NCc1ccccc1 [Compound 2],3.1 µM
10,C=CCN1CC(=O)N2[C@@H](Cc3ccc(OP(=O)(O)O)cc3)C(=O)N(Cc3ccc(F)cc3F)C[C@@H]2N1C(=O)NCc1ccccc1 [Compound 8],2.1 µM
11,C=CCN1CC(=O)N2[C@@H](Cc3ccc(OP(=O)(O)O)cc3)C(=O)N(Cc3cccc4c3N(C)CCO4)C[C@@H]2N1C(=O)NCc1ccccc1 [Compound 12],1 µM

# System: HCT116 cells
# Assay: Growth inhibition assay (MTS)
# Assay type: cell-based
# Details: Homo sapiens, HCT-116; Table 10; prodrug compounds, HCT116 cells, growth inhibition; read-out: MTS, HCT116 (uM) GI50
# How it was run: as §1
row,SMILES,GI50
1,C=CCN1CC(=O)N2[C@@H](Cc3ccc(OP(=O)(O)O)cc3)C(=O)N(Cc3cccc4cccnc34)C[C@@H]2N1C(=O)NCc1ccccc1 [Compound 6],0.4 µM
2,CN1CC(=O)N2[C@@H](Cc3ccc(OP(=O)(O)O)cc3)C(=O)N(Cc3ccc4ncsc4c3)C[C@@H]2N1C(=O)NCc1ccccc1 [Compound 11],6.3 µM
3,CCCN1CC(=O)N2[C@@H](Cc3ccc(OP(=O)(O)O)cc3)C(=O)N(Cc3cccc4cccnc34)C[C@@H]2N1C(=O)NCc1ccccc1 [Compound 10],0.8 µM
4,CN(C)c1cc(CN2C[C@H]3N(C(=O)CN(C)N3C(=O)NCc3ccccc3)[C@@H](Cc3ccc(OP(=O)(O)O)cc3)C2=O)ccc1Cl [Compound 13],1.7 µM
5,CN1CC(=O)N2[C@@H](Cc3ccc(OP(=O)(O)O)cc3)C(=O)N(Cc3cccc4cnn(C)c34)C[C@@H]2N1C(=O)NCc1ccccc1 [Compound 5],16.5 µM
6,CN1CC(=O)N2[C@@H](Cc3ccc(OP(=O)(O)O)cc3)C(=O)N(Cc3ccc(F)cc3F)C[C@@H]2N1C(=O)NCc1ccccc1 [Compound 4],11.4 µM
7,CN(C)c1cc(F)ccc1CN1C[C@H]2N(C(=O)CN(C)N2C(=O)NCc2ccccc2)[C@@H](Cc2ccc(OP(=O)(O)O)cc2)C1=O [Compound 3],3.1 µM
8,C=CCN1CC(=O)N2[C@@H](Cc3ccc(OP(=O)(O)O)cc3)C(=O)N(Cc3ccc(Cl)c4cccnc34)C[C@@H]2N1C(=O)NCc1ccccc1 [Compound 7],1.8 µM
9,CN1CC(=O)N2[C@@H](Cc3ccc(OP(=O)(O)O)cc3)C(=O)N(Cc3cccc4ccccc34)C[C@@H]2N1C(=O)NCc1ccccc1 [Compound 2],6.6 µM
10,C=CCN1CC(=O)N2[C@@H](Cc3ccc(OP(=O)(O)O)cc3)C(=O)N(Cc3ccc(F)cc3F)C[C@@H]2N1C(=O)NCc1ccccc1 [Compound 8],1.9 µM
11,C=CCN1CC(=O)N2[C@@H](Cc3ccc(OP(=O)(O)O)cc3)C(=O)N(Cc3cccc4c3N(C)CCO4)C[C@@H]2N1C(=O)NCc1ccccc1 [Compound 12],1.2 µM

# System: SW480 cells
# Assay: MTS cytotoxicity test
# Assay type: cell-based
# Details: Homo sapiens, Table 10, prodrug compounds, 24 hours treatment, read-out: MTS, SW480 (uM) LD50
# Protocol: (§2) SW480 or HCT116 cells were placed into 96 well microplate (10^4cells/well) and incubated for 24 hours at 37° C. The cells were treated with TCF4 compound at various concentrations for 24 hours. 20 μl of MTS solution (Promega) was added into each well and incubated for 2 hours at 37° C. Cell viability was measured by reading the absorbance at 490 nm using microplate reader (Molecular Device) and cytotoxicity of a compound at each concentration was calculated.
row,SMILES,IC50
1,C=CCN1CC(=O)N2[C@@H](Cc3ccc(OP(=O)(O)O)cc3)C(=O)N(Cc3cccc4cccnc34)C[C@@H]2N1C(=O)NCc1ccccc1 [Compound 6],9.2 µM
2,CN1CC(=O)N2[C@@H](Cc3ccc(OP(=O)(O)O)cc3)C(=O)N(Cc3ccc4ncsc4c3)C[C@@H]2N1C(=O)NCc1ccccc1 [Compound 11],> 50 µM
3,CCCN1CC(=O)N2[C@@H](Cc3ccc(OP(=O)(O)O)cc3)C(=O)N(Cc3cccc4cccnc34)C[C@@H]2N1C(=O)NCc1ccccc1 [Compound 10],0.4 µM
4,CN(C)c1cc(CN2C[C@H]3N(C(=O)CN(C)N3C(=O)NCc3ccccc3)[C@@H](Cc3ccc(OP(=O)(O)O)cc3)C2=O)ccc1Cl [Compound 13],21.1 µM
5,CN1CC(=O)N2[C@@H](Cc3ccc(OP(=O)(O)O)cc3)C(=O)N(Cc3cccc4cnn(C)c34)C[C@@H]2N1C(=O)NCc1ccccc1 [Compound 5],34 µM
6,CN1CC(=O)N2[C@@H](Cc3ccc(OP(=O)(O)O)cc3)C(=O)N(Cc3ccc(F)cc3F)C[C@@H]2N1C(=O)NCc1ccccc1 [Compound 4],> 50 µM
7,CN(C)c1cc(F)ccc1CN1C[C@H]2N(C(=O)CN(C)N2C(=O)NCc2ccccc2)[C@@H](Cc2ccc(OP(=O)(O)O)cc2)C1=O [Compound 3],> 50 µM
8,C=CCN1CC(=O)N2[C@@H](Cc3ccc(OP(=O)(O)O)cc3)C(=O)N(Cc3ccc(Cl)c4cccnc34)C[C@@H]2N1C(=O)NCc1ccccc1 [Compound 7],12.9 µM
9,CN1CC(=O)N2[C@@H](Cc3ccc(OP(=O)(O)O)cc3)C(=O)N(Cc3cccc4ccccc34)C[C@@H]2N1C(=O)NCc1ccccc1 [Compound 2],8.2 µM
10,C=CCN1CC(=O)N2[C@@H](Cc3ccc(OP(=O)(O)O)cc3)C(=O)N(Cc3ccc(F)cc3F)C[C@@H]2N1C(=O)NCc1ccccc1 [Compound 8],21.6 µM
11,C=CCN1CC(=O)N2[C@@H](Cc3ccc(OP(=O)(O)O)cc3)C(=O)N(Cc3cccc4c3N(C)CCO4)C[C@@H]2N1C(=O)NCc1ccccc1 [Compound 12],> 50 µM

# System: HCT116 cells
# Assay: MTS cytotoxicity test
# Assay type: cell-based
# Details: Homo sapiens, HCT-116, Table 10, prodrug compounds, 24 hours treatment, read-out: MTS, HCT116 (uM) LD50
# Protocol: as §2
row,SMILES,IC50
1,C=CCN1CC(=O)N2[C@@H](Cc3ccc(OP(=O)(O)O)cc3)C(=O)N(Cc3cccc4cccnc34)C[C@@H]2N1C(=O)NCc1ccccc1 [Compound 6],6.4 µM
2,CN1CC(=O)N2[C@@H](Cc3ccc(OP(=O)(O)O)cc3)C(=O)N(Cc3ccc4ncsc4c3)C[C@@H]2N1C(=O)NCc1ccccc1 [Compound 11],> 50 µM
3,CCCN1CC(=O)N2[C@@H](Cc3ccc(OP(=O)(O)O)cc3)C(=O)N(Cc3cccc4cccnc34)C[C@@H]2N1C(=O)NCc1ccccc1 [Compound 10],7 µM
4,CN(C)c1cc(CN2C[C@H]3N(C(=O)CN(C)N3C(=O)NCc3ccccc3)[C@@H](Cc3ccc(OP(=O)(O)O)cc3)C2=O)ccc1Cl [Compound 13],20 µM
5,CN1CC(=O)N2[C@@H](Cc3ccc(OP(=O)(O)O)cc3)C(=O)N(Cc3cccc4cnn(C)c34)C[C@@H]2N1C(=O)NCc1ccccc1 [Compound 5],> 50 µM
6,CN1CC(=O)N2[C@@H](Cc3ccc(OP(=O)(O)O)cc3)C(=O)N(Cc3ccc(F)cc3F)C[C@@H]2N1C(=O)NCc1ccccc1 [Compound 4],49.3 µM
7,CN(C)c1cc(F)ccc1CN1C[C@H]2N(C(=O)CN(C)N2C(=O)NCc2ccccc2)[C@@H](Cc2ccc(OP(=O)(O)O)cc2)C1=O [Compound 3],41.9 µM
8,C=CCN1CC(=O)N2[C@@H](Cc3ccc(OP(=O)(O)O)cc3)C(=O)N(Cc3ccc(Cl)c4cccnc34)C[C@@H]2N1C(=O)NCc1ccccc1 [Compound 7],12 µM
9,CN1CC(=O)N2[C@@H](Cc3ccc(OP(=O)(O)O)cc3)C(=O)N(Cc3cccc4ccccc34)C[C@@H]2N1C(=O)NCc1ccccc1 [Compound 2],23.2 µM
10,C=CCN1CC(=O)N2[C@@H](Cc3ccc(OP(=O)(O)O)cc3)C(=O)N(Cc3ccc(F)cc3F)C[C@@H]2N1C(=O)NCc1ccccc1 [Compound 8],23.2 µM
11,C=CCN1CC(=O)N2[C@@H](Cc3ccc(OP(=O)(O)O)cc3)C(=O)N(Cc3cccc4c3N(C)CCO4)C[C@@H]2N1C(=O)NCc1ccccc1 [Compound 12],19.3 µM
